In ChEMBL document CHEMBL1127644, “Design of orally active, non-peptidic inhibitors of human leukocyte elastase” (J Med Chem, 1994):
Active and inactive are the calls of the source. The rule behind the calls is not given here.

Key:
[1] = Bioavailability was evaluated in hamster; type: ADME, organism-based; details: cricetinae, in vivo; read-out: Bioavailabiility
[2] = Bioavailability in rat; type: ADME, organism-based; details: in vivo, read-out: Bioavailabiility
[3] = system: Cricetinae gen. sp.; experiment: Inhibition of Human Leukocyte Elastase (HLE) induced lung hemorrhage in hamster at an oral dose of 2.5 mg/kg; type: functional, Cricetulus griseus
[4] = system: Cricetinae gen. sp.; experiment: The compound was evaluated for effective dose after oral dosing; type: functional, Cricetulus griseus
[5] = Bioavailability was evaluated in dog; type: ADME, organism-based, Canis lupus familiaris; details: in vivo, read-out: Bioavailabiility
[6] = system: Cricetinae gen. sp.; experiment: Inhibition of Human Leukocyte Elastase (HLE) induced lung hemorrhage in hamster at an oral dose of 20 mg/kg; […]; type: functional, organism-based; design: dose 20 mg/kg; details: Cricetulus griseus
[7] = system: Cricetinae gen. sp.; experiment: Inhibition of Human Leukocyte Elastase (HLE) induced lung hemorrhage in hamster at an oral dose of 20 mg/kg; type: functional, Cricetulus griseus
[8] = Partition coefficient (logP); type: physicochemical; details: octanol/water

CC(C)C(NC(=O)Cn1c(-c2ccc(F)cc2)ncc(N)c1=O)C(=O)C(F)(F)F (stereo not given)
bioavailability [1]: 77% | bioavailability [2]: 62% | inhibition in vivo at 2.5 mg/kg [3]: 43% | ED50 [4]: 7.5 mg/kg | bioavailability [5]: 88%

CC(C)C(NC(=O)Cn1c(-c2ccccc2)ccc(NC(=O)OCc2ccc(C(=O)O)cc2)c1=O)C(=O)C(F)(F)F (stereo not given)
inhibition [6]: inactive

CC(C)C(NC(=O)Cn1c(-c2ccc(F)cc2)ncc(NC(=O)OCc2ccccc2)c1=O)C(=O)C(F)(F)F (stereo not given)
inhibition in vivo at 20 mg/kg [7]: 63%

CC(C)C(NC(=O)Cn1c(-c2ccccc2)ccc(NC(=O)OCc2ccccc2)c1=O)C(=O)C(F)(F)F (stereo not given)
logP [8]: > 4 | inhibition [6]: inactive

COC(=O)Nc1cnc(-c2ccc(F)cc2)n(CC(=O)NC(C(=O)C(F)(F)F)C(C)C)c1=O (stereo not given)
inhibition in vivo at 2.5 mg/kg [3]: 39%
